Experimental data from PubChem BioAssay AID248 (DTP/NCI, 2004).
“And” between values parts separate entries of the source, which are not always exact repeats. Identical values can stand only once. Toxic doses and inconclusive results are not listed. Cut-off read from the data, not from the text of the source: active = T/C of 150% or more; inactive = T/C below 125%.

System: L1210 leukemia ip in BDF1 mice, survival T/C
Assay: NCI In Vivo Anticancer Drug Screen. Data for tumor model L1210 Leukemia (intraperitoneal) in B6D2F1 (BDF1) mice
Settings: endpoint: mean survival time, higher = longer survival
Method in brief: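 Survival endpoint. Drug-treated group vs vehicle group, expressed as T divided by C. Tumor passaged by transplantation.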

[1] = dose: 100.0 mg/kg/injection, schedule: Q04DX003 (ip), vehicle: Klucel (hydroxypropylcellulose) (HPC)
[2] = dose: 200.0 mg/kg/injection, schedule: Q04DX003 (ip), vehicle: Klucel (hydroxypropylcellulose) (HPC)
[3] = dose: 400.0 mg/kg/injection, schedule: Q04DX003 (ip), vehicle: Klucel (hydroxypropylcellulose) (HPC)
[4] = dose: 100.0 mg/kg/injection, schedule: Q04DX003 (ip), vehicle: saline with Tween-80
[5] = dose: 200.0 mg/kg/injection, schedule: Q04DX003 (ip), vehicle: saline with Tween-80
[6] = dose: 50.0 mg/kg/injection, schedule: Q01DX001 (ip), vehicle: saline
[7] = dose: 100.0 mg/kg/injection, schedule: Q01DX001 (ip), vehicle: saline
[8] = dose: 200.0 mg/kg/injection, schedule: Q01DX001 (ip), vehicle: saline
[9] = dose: 400.0 mg/kg/injection, schedule: Q01DX001 (ip), vehicle: saline
[10] = dose: 400.0 mg/kg/injection, schedule: Q04DX003 (ip), vehicle: saline with Tween-80
[11] = dose: 25.0 mg/kg/injection, schedule: Q01DX009 (ip), vehicle: saline
[12] = dose: 50.0 mg/kg/injection, schedule: Q01DX009 (ip), vehicle: saline

Measured: T/C

CCOC(=O)c1c[nH]c2cc(Cl)ccc2c1=O
inactive: dose: 100.0 mg/kg/injection, schedule: Q01DX009 (ip), vehicle: Klucel (hydroxypropylcellulose) (HPC) 97 % of control | [1] 98 % of control | dose: 200.0 mg/kg/injection, schedule: Q01DX009 (ip), vehicle: Klucel (hydroxypropylcellulose) (HPC) 100 % of control | [2] 102 % of control | dose: 400.0 mg/kg/injection, schedule: Q01DX009 (ip), vehicle: Klucel (hydroxypropylcellulose) (HPC) 98 % of control | [3] 96 % of control

CC1(C(=O)N2c3ccccc3C=CC2C#N)CC2C=CC1C2 (stereo not given)
inactive: [1] 106 % of control | [2] 110 % of control | [3] 123 % of control

O=C(C[n+]1ccccc1)N/N=C/c1ccc(O)c(O)c1
inactive: dose: 50.0 mg/kg/injection, schedule: Q01DX009 (ip), vehicle: saline with Tween-80 104 % of control | dose: 100.0 mg/kg/injection, schedule: Q01DX009 (ip), vehicle: saline with Tween-80 106 % of control | [4] 110 % of control | dose: 200.0 mg/kg/injection, schedule: Q01DX009 (ip), vehicle: saline with Tween-80 117 % of control | [5] 110 % of control

COc1cc(N(CCO)CCO)ccc1NC(=O)c1ccccc1
inactive: dose: 12.5 mg/kg/injection, schedule: Q01DX001 (ip), vehicle: carboxymethylcellulose (CMC) 93 % of control | dose: 12.5 mg/kg/injection, schedule: Q01DX009 (ip), vehicle: Klucel (hydroxypropylcellulose) (HPC) 104 % of control | dose: 12.5 mg/kg/injection, schedule: Q04DX003 (ip), vehicle: Klucel (hydroxypropylcellulose) (HPC) 97 % of control | dose: 25.0 mg/kg/injection, schedule: Q01DX001 (ip), vehicle: carboxymethylcellulose (CMC) 98 % of control | dose: 25.0 mg/kg/injection, schedule: Q01DX009 (ip), vehicle: Klucel (hydroxypropylcellulose) (HPC) 104 % of control | dose: 25.0 mg/kg/injection, schedule: Q04DX003 (ip), vehicle: Klucel (hydroxypropylcellulose) (HPC) 95 % of control | dose: 50.0 mg/kg/injection, schedule: Q01DX009 (ip), vehicle: Klucel (hydroxypropylcellulose) (HPC) 97 % of control | dose: 50.0 mg/kg/injection, schedule: Q04DX003 (ip), vehicle: Klucel (hydroxypropylcellulose) (HPC) 97 % of control

CCOC(=O)C(C)(C)[Si](C)(C)C
inactive: [6] 97 % of control | [7] 103 % of control | [8] 97 % of control | [9] 97 % of control

CCOC(=O)Cc1cc(=O)n(C)c2ccccc12
inactive: dose: 100.0 mg/kg/injection, schedule: Q01DX001 (ip), vehicle: other 97 % of control | dose: 200.0 mg/kg/injection, schedule: Q01DX001 (ip), vehicle: other 97 % of control | dose: 400.0 mg/kg/injection, schedule: Q01DX001 (ip), vehicle: other 103 % of control

Clc1cc2c(cc1Cl)OB(c1ccccc1)O2
inactive: dose: 100.0 mg/kg/injection, schedule: Q04DX003 (ip), vehicle: alcohol 113 % of control | dose: 200.0 mg/kg/injection, schedule: Q04DX003 (ip), vehicle: alcohol 106 % of control

Cc1cc2ccccc2c(N=Cc2cc(Br)cc(Br)c2O)c1C#N
inactive: [4] 92 % of control and 98 % of control and 90 % of control | dose: 200.0 mg/kg/injection, schedule: Q01DX003 (ip), vehicle: saline with Tween-80 87 % of control | [5] 93 % of control and 98 % of control and 90 % of control | [10] 97 % of control and 101 % of control and 104 % of control

Cc1cc(C)c(C(=O)CCN(C)C)c(C)c1
inactive: [11] 103 % of control | dose: 25.0 mg/kg/injection, schedule: Q04DX003 (ip), vehicle: saline 93 % of control | [12] 96 % of control | dose: 50.0 mg/kg/injection, schedule: Q04DX003 (ip), vehicle: saline 96 % of control | dose: 100.0 mg/kg/injection, schedule: Q04DX003 (ip), vehicle: saline 93 % of control and 104 % of control

CN(C)N=Nc1ccc(C(=O)NC(CCC(=O)NN)C(=O)NN)cc1 (stereo not given)
inactive: [7] 96 % of control | [8] 111 % of control | [9] 94 % of control

Cc1cccn(C)c1=O
inactive: [7] 95 % of control | [8] 101 % of control | [9] 96 % of control

CCC(C)c1cccc2c(C(CC)CC)cccc12 (stereo not given)
inactive: [7] 104 % of control | [8] 106 % of control | [9] 112 % of control

COC(=O)c1ccc(Cn2cnc3ncnc(Cl)c32)cc1
inactive: [1] 92 % of control | [2] 91 % of control | [3] 105 % of control

Nc1cccc2c1-c1ccccc1/C2=N\O
inactive: dose: 100.0 mg/kg/injection, schedule: Q01DX001 (ip), vehicle: carboxymethylcellulose (CMC) 97 % of control | dose: 200.0 mg/kg/injection, schedule: Q01DX001 (ip), vehicle: carboxymethylcellulose (CMC) 105 % of control | dose: 400.0 mg/kg/injection, schedule: Q01DX001 (ip), vehicle: carboxymethylcellulose (CMC) 103 % of control

C=CCNC(=O)NCCSC(=O)SCCCC
inactive: dose: 100.0 mg/kg/injection, schedule: Q01DX001 (ip), vehicle: Klucel (hydroxypropylcellulose) (HPC) 103 % of control | dose: 200.0 mg/kg/injection, schedule: Q01DX001 (ip), vehicle: Klucel (hydroxypropylcellulose) (HPC) 100 % of control | dose: 400.0 mg/kg/injection, schedule: Q01DX001 (ip), vehicle: Klucel (hydroxypropylcellulose) (HPC) 100 % of control

CCC(=O)OC1(c2ccccc2)CCN(CCNc2ccccc2)CC1
inactive: dose: 20.0 mg/kg/injection, schedule: Q04DX003 (ip), vehicle: Klucel (hydroxypropylcellulose) (HPC) 100 % of control | dose: 40.0 mg/kg/injection, schedule: Q04DX003 (ip), vehicle: Klucel (hydroxypropylcellulose) (HPC) 103 % of control | dose: 80.0 mg/kg/injection, schedule: Q04DX003 (ip), vehicle: Klucel (hydroxypropylcellulose) (HPC) 105 % of control

CCOC(=O)C(NC(=O)C(Cc1ccc(N(CCCl)CCCl)cc1)NC(C)=O)C(C)C (stereo not given)
inactive: dose: 7.5 mg/kg/injection, schedule: Q01DX009 (ip), vehicle: alcohol 96 % of control | dose: 15.0 mg/kg/injection, schedule: Q01DX009 (ip), vehicle: alcohol 120 % of control | dose: 24.0 mg/kg/injection, schedule: Q01DX009 (ip), vehicle: carboxymethylcellulose (CMC) 96 % of control | [11] 98 % of control | dose: 30.0 mg/kg/injection, schedule: Q04DX003 (ip), vehicle: alcohol 110 % of control | dose: 36.0 mg/kg/injection, schedule: Q01DX009 (ip), vehicle: carboxymethylcellulose (CMC) 98 % of control | [6] 111 % of control | dose: 50.0 mg/kg/injection, schedule: Q01DX009 (ip), vehicle: carboxymethylcellulose (CMC) 104 % of control | [12] 101 % of control | dose: 50.0 mg/kg/injection, schedule: Q04DX003 (ip), vehicle: alcohol 110 % of control | dose: 75.0 mg/kg/injection, schedule: Q01DX009 (ip), vehicle: carboxymethylcellulose (CMC) 102 % of control | dose: 75.0 mg/kg/injection, schedule: Q04DX003 (ip), vehicle: alcohol 121 % of control | [7] 105 % of control | dose: 100.0 mg/kg/injection, schedule: Q01DX009 (ip), vehicle: saline 109 % of control | dose: 112.0 mg/kg/injection, schedule: Q01DX009 (ip), vehicle: alcohol 103 % of control and 108 % of control | dose: 112.0 mg/kg/injection, schedule: Q01DX009 (ip), vehicle: carboxymethylcellulose (CMC) 96 % of control | dose: 112.0 mg/kg/injection, schedule: Q04DX003 (ip), vehicle: alcohol 118 % of control | dose: 178.0 mg/kg/injection, schedule: Q01DX009 (ip), vehicle: carboxymethylcellulose (CMC) 107 % of control | dose: 178.0 mg/kg/injection, schedule: Q01DX015 (ip), vehicle: saline 103 % of control | [8] 105 % of control | dose: 267.0 mg/kg/injection, schedule: Q01DX009 (ip), vehicle: carboxymethylcellulose (CMC) 96 % of control | dose: 267.0 mg/kg/injection, schedule: Q01DX015 (ip), vehicle: saline 108 % of control | [9] 115 % of control | dose: 400.0 mg/kg/injection, schedule: Q01DX009 (ip), vehicle: carboxymethylcellulose (CMC) 98 % of control | dose: 400.0 mg/kg/injection, schedule: Q01DX015 (ip), vehicle: saline 106 % of control | dose: 600.0 mg/kg/injection, schedule: Q01DX009 (ip), vehicle: carboxymethylcellulose (CMC) 96 % of control | dose: 600.0 mg/kg/injection, schedule: Q01DX015 (ip), vehicle: saline 94 % of control

O=C1C=CC(=O)N1Cc1ccncc1
inactive: [7] 101 % of control | [8] 95 % of control | [9] 95 % of control

CC(C)NC(=O)Oc1cccc(NC(=O)C(C)C)c1
inactive: dose: 25.0 mg/kg/injection, schedule: Q04DX003 (ip), vehicle: saline with Tween-80 101 % of control | dose: 50.0 mg/kg/injection, schedule: Q04DX003 (ip), vehicle: saline with Tween-80 92 % of control | [4] 92 % of control and 95 % of control | [10] 89 % of control
